Measured values as given in article PMC12973313 (Chemical Science, 2026).
Where two headings read alike, the source gives them in different places.

Key:
[1] = system: A2780 CisR cisplatin resistant ovarian cancer cells; test: GI50 determination, SRB assay; format: cell-based, human; conditions: 96 hours; read-out: Mean GI50 (μM) A2780 CisR SRB Assays
Method: (§1) GI50 determination assays
(§2) Cell culture: The RPE-1 retinal pigment epithelial, A2780 human ovarian carcinoma, and A2780 CisR cisplatin resistant human ovarian carcinoma cell lines were donated with thanks from the Institute of Cancer Research. The A2780 and A2780 CisR cell lines were cultured in IMDM supplemented with 10 % FBS at 37 °C and 5 % CO2, while the RPE-1 cell line was cultured in a 1:1 mixture of Dulbecco's Modified Eagle Medium and Ham’s F-12 Nutrient Mixture (DMEM/F-12) at 37 °C and 5 % CO2.
(§3) SRB assay: Cells were seeded into 96-well plates at 800 cells per well/cpw (A2780), 1600 cpw (A2780 CisR) or 400 cpw (RPE-1) in cell culture medium and cultured for 48 hours followed by addition of each compound over an eight-point concentration range (each concentration in triplicate). Plates were then cultured for a further 96 hours, after which the cell culture […]
(§4) medium was removed from each well and the cells fixed with addition of 70 µL/well of 10 % (w/v) trichloroacetic acid (TCA) in distilled water followed by incubation for 30 minutes at RT.
(§5) Each plate was then washed with distilled water five times before addition of 70 µL SRB dye (0.4 % (w/v) SRB dye (ThermoFisher Scientific, USA) solubilised in 1 % (v/v) acetic acid/ dH2O) and incubat ed for 30 minutes at RT, followed by washing three times with 1 % (v/v) acetic acid and drying in a 37 °C oven overnight. Once dry, 100 μl of 10 mM Tris -base (ThermoFisher Scientific, USA) was added to each well and plates put on a microplate shaker for 10 minutes at 200 rpm to solubilize the dye. Absorbance values were then read at wavelength 490 nm on a Victor X4 multi-label plate reader (PerkinElmer Life Sciences, USA), data analysed using Microsoft Excel and graphs produced using GraphPad Prism 9.0 and the GI50 value calculated.
(§6) Solutions and compo und preparation: All solvents and starting materials were purchased from known chemical suppliers. Compound stock solutions were prepared in DMSO. Buffer […]
(§7) 500 mM. Buffer B consisted of Na2SO4 (167 mM) and NaOAc (5 mM) with a pH of 5.5 and an ionic strength of 500 mM.
(§8) Vesicle formation: Giant unilamellar Vesicles (GUVS) were prepared through the electro formation method using a Nanion VesiclePrepPro. A solution of 1,2-diphytanoyl-sn-glycero-3-phosphocholine (DPhPC) (10 mM) with 10 % cholesterol in chloroform (20 µL) was deposited onto an ITO coated glass surface (surface coated glass slide) and allowed to evaporate to create a dehydrated thin lipid film. A greased O-ring was then placed around the dehydrated lipid film to create a seal. This volume was then filled with a sucrose solution (275 µL, 200 mM) and then sealed with a second ITO coated glass slide. An AC current (3 V/5 Hz) was then applied. After 2 hrs, the voltage and frequency were reduced in steps over 30 mins to 1.6 V/1 Hz and held for 1 hr before being reduced to 0 V/0 Hz over a further 30 min […]
(§9) Patch clamp measurements: Experiments were performed using a Port-a-Patch system (Nanion Technologies) with borosilicate glass chips that contain an aperture diameter of approximately 1 µm. Buffer A (5 µL) was placed on the underside of the chip over the aperture, The chip was then placed into the port-a-patch system. Buffer A (15 µL) was then added to the top of the chip and 5 µL of the GUV stock solution added. The GUVS were the positioned over the aperture in the chip by application of negative pressure (-30 mbar).
(§10) When a GUV is positioned over the aperture in the chip, it bursts, leaving a planar bilayer as a seal. The negative pressure is then removed, leaving the planar bilayer in place over the aperture. The external buffer A was the exchanged with buffer B, through four simultaneous […]
(§11) buffer exchanges (4 x 15 µL). […]
(§12) = 30 s, to give a final experimental concentration of 0.1 – 1 mM as appropriate. The number of sweeps was set to 1000, the sweep interval to 0.00 s, sample interval to 1.00 ms and the protocol was run for a total of 5 mins. Each experiment was repeated a minimum of three time to ensure reproducibility.

RPE-1 cells = test: GI50 determination, SRB assay; format: cell-based, human; conditions: 96 hours; read-out: Mean GI50 (μM) RPE-1 SRB Assays
Method: as §1, §2, §3, §4, §5, §6, §7, §8, §9, §10, §11, §12

[2] = system: A2780 ovarian cancer cells; test: GI50 determination, SRB assay; format: cell-based, human; conditions: 96 hours; read-out: Mean GI50 (μM) A2780 SRB Assays
Method: as §1, §2, §3, §4, §5, §6, §7, §8, §9, §10, §11, §12

[3] = Bi-directional permeability in Caco-2 cell line; format: in vitro ADME; conditions: human; for Papp B→A at 2 h, 5 µM: Caco-2, pH 7.4, 5 µM, basolateral to apical; for recovery at 2 h, 5 µM: Caco-2, pH 7.4, after 2 hours; for Papp A→B at 2 h, 5 µM: apical to basolateral
Source text: Next, to gauge the suitability of SSAs for oral dosing, 9 was subjected to a Caco-2 permeability assay which is used to both predict human intestinal permeability and investigate drug efflux, predicting in vivo compound absorption. This assay allows assessment of a compound's ability to undergo transport from the apical to the basolateral (A–B) compartments of the cell monolayer and vice versa (B–A). […] This is likely to result in poor absorption when dosed orally and therefore further development would be necessary for these agents to become suitable for oral administration. […]
The ionspray voltage was 5500V.
Bi-directional Permeability in Caco-2 Cell Line:
The bi-directional permeability in Caco-2 cell lines was determined by seeding cells onto an HTS Transwell plate. Cells were cultivated for 14-18 days in a cell culture incubator at 37°C, 5% CO2, 95% relative humidity. Cell culture medium was replaced every other day. To assess monolayer integrity the transepithelial electrical resistance (TEER) across the monolayer was measured using Millicell Epithelial volt-ohm meter prior to assay and Lucifer yellow (LY) fluorescence measurement post-assay.
Test compound was prepared in DMSO and diluted in Hank’s Balanced Saline Solution (HBSS, pH 7.4) to a final concentration of 5 µM. Compound was added to the donor compartment of the transwell plate for both apical to basolateral (A>B) and basolateral to apical (B>A) measurements, with blank HBSS being added to the receiver compartment. The transwell plate was then incubated at 37°C, 5% CO2 for 2 hours.
Samples were taken at T=0 and T=2 hours determine the concentration of initial donor sample, and the concentration of receiver and donor wells post-incubation, respectively.
The samples were quenched with solvent containing internal standard (IS). The supernatant was mixed with an appropriate volume of ultra-pure water before LC-MS/MS analysis.
Samples were analysed using a Shimadzu Nexera LC Binary Gradient LC-30AD (Shimadzu Inc, Kyoto), coupled to a Sciex 6500+ (AB Inc., Illinois). Separation of compounds was achieved using a HALO 90Å biphenyl (2.7µm,2.1x50mm) (Advanced Materials Technology, Wilmington) column at a temperature of 40°C. A binary mobile phase gradient at a flow rate of 0.7 mL/min was used. Initial LC conditions comprised of 95% solvent A (0.1% formic acid in water) and 5% solvent B (0.1% formic acid in acetonitrile). This was ramped to 95% solvent B at 0.7 minutes, held for 0.5 minutes and then immediately returned to initial conditions. Sample analysis was by electrospray ionisation combined with multiple reaction monitoring in positive ion mode. The ion spray voltage was 5500V.
In vitro Absorption, Distribution and Metabolism results
Table S1 – Result from solubility assays performed in PBS pH 7.4 for SSA 9.
Table S2 – Summary of results from Caco-2 permeability assays for SSA 9. Papp is given as […]
cm/s. A = apical; B = basolateral. Recovery = % SSA recovered from the assay after 2 hours.
ID Papp (A-B) % Recovery Papp (B-A) % Recovery Efflux Ratio
Table S3 – Summary of results from human plasma protein binding assays for SSA 9. % Bound = % of SSA bound to the plasma proteins after 6 hours incubation at 37 °C. Low % […]
= > 99 %. % Recovery = % SSA recovered from the assay after 6 hours.
ID % Bound % Recovery % Stability
Table S4 – Summary of results from mouse, rat and human microsomal stability assays for SSA 9. The in vitro half-life (t1/2) and microsomal intrinsic clearance (CLint) were calculated from the elimination rate (k, the slope of the natural log of concentration verses time curve), assuming first order kinetics, using the formulae t1/2 = 0.693/-k and CLint = 0.693/t1/2 […]. This compound would be classed as a low clearance compound in all three species. […]

[4] = Plasma protein binding, equilibrium dialysis; format: in vitro ADME, human; conditions: pH 7.4; human plasma, after 6 hours
Method: This allows an assessment of the free drug concentration available to distribute into the tissues and interact with the target. The extent to which a compound binds to the constituents of blood plasma can influence drug distribution. […] page 10: In vitro Absorption, Distribution and Metabolism studies General note: These studies were performed by Contract Research Organisation (CRO) Pharmaron. The methodology provided within the ESI is published within the express permission of this organisation. The percentage of a compound recovered during the […] limitations such as unintended potential non-specific binding events to experimental equipment, solubility issues, etc. Protein Binding measurements in human plasma by using equilibrium dialysis: The fraction unbound in human plasma (P-KB, Ltd People's hospital of Shandong) was measured using 96-well Equilibrium Dialysis Plate (HTDialysis LLC, Gales Ferry, CT). Human plasma containing 5 μM test compound was dialysed against dialysis buffer (PBS, pH 7.4) with initial samples taken to allow for assessment of plasma stability and recovery before the plate was incubated for 6 hours at 37°C at 5% CO2. Samples were removed at 6 hours, and all samples were matrix matched and quenched with acetonitrile containing internal standard. Samples were centrifuged at 3,220g for 30 minutes to precipitate protein and enable sampling of supernatant prior to appropriate dilution for liquid chromatography mass-spectrometry (LC-MS/MS) analysis. Samples were analysed using a Shimadzu Nexera LC Binary Gradient LC-30AD (Shimadzu Inc, Kyoto), coupled to a Sciex 6500+ (AB Inc., Illinois). Separation was achieved using a XSelect HSS T3 (2.5μm, 2.1 x 50 mm) (Waters Ltd., Wilmslow) column at a temperature of 40°C and a binary mobile phase gradient at a flow rate of 0.8 mL/min. Initial LC conditions comprised of […] was ramped to 98% B at 0.5 min, held for 0.4 min and then immediately returned to initial conditions. Sample analysis was by electrospray ionisation in combined with multiple reaction monitoring in positive ionisation mode. The ionisation voltage was +5500 V. Kinetic Solubility Determination in PBS pH 7.4: The stock solutions of test and control compounds were prepared in DMSO at 10 mM. From […] These solutions were then shaken at 1100 rpm for 2 hours at 25°C. Following incubation, the samples were filtered using a vacuum manifold. The filtrate was analysed and quantified against a standard of known concentration using liquid chromatography mass- spectrometry (LC-MS/MS). Samples were analysed using a Shimadzu Nexera LC Binary Gradient LC-30AD (Shimadzu Inc, Kyoto), coupled to a Sciex 4500 mass spectrometer (AB Inc., Illinois). Separation of […] Wilmslow) at a temperature of 40°C and a binary mobile phase gradient at a flow rate of 0.8 mL/min. […] This was ramped to 98% solvent B at 0.5 minutes, held for 0.4 minutes and then immediately returned to initial conditions. Sample analysis was by electrospray ionisation combined with multiple reaction monitoring in positive ion mode. The ionspray voltage was […]. 10

Question: For `CCCC[N+](CCCC)(CCCC)CCCC` [TBACl, reference compound], which GI50 [1] is on record?
Answer: 219 µM

Question: What about the GI50 (RPE-1 cells) of the same compound?
Answer: 532 µM

Question: And the GI50 [2]?
Answer: 114 µM

Question: With `COCCc1ccc(OCC(O)CNC(C)C)cc1` (centres unmarked) [Metoprolol] as the compound, how does the Papp B→A at 2 h, 5 µM [3] read?
Answer: 26.4 ×10⁻⁶ cm/s

Question: And the efflux ratio at 2 h, 5 µM ([3]; Caco-2, pH 7.4, Caco-2)?
Answer: 0.93

Question: And the recovery at 2 h, 5 µM ([3]; read-out: Recovery (%) AP-BL)?
Answer: 108%

Question: What about the recovery at 2 h, 5 µM ([3]; read-out: Recovery (%) BL-AP) of the same compound?
Answer: 99%

Question: What about the Papp A→B at 2 h, 5 µM ([3]; Caco-2, pH 7.4) of the same compound?
Answer: 28.4 ×10⁻⁶ cm/s

Question: Which efflux ratio at 2 h, 5 µM ([3]; Caco-2, pH 7.4) does the source give for `C[C@H]1O[C@@H](O[C@H]2[C@@H](O)C[C@H](O[C@H]3[C@@H](O)C[C@H](O[C@H]4CC[C@@]5(C)[C@H](CC[C@@H]6[C@@H]5C[C@@H](O)[C@]5(C)[C@@H](C7=CC(=O)OC7)CC[C@]65O)C4)O[C@@H]3C)O[C@@H]2C)C[C@H](O)[C@@H]1O` [Digoxin] here?
Answer: 45.6

Question: And the Papp B→A at 2 h, 5 µM [3]?
Answer: 18.7 ×10⁻⁶ cm/s

Question: What about the recovery at 2 h, 5 µM ([3]; read-out: Recovery (%) AP-BL) of the same compound?
Answer: 95.9%

Question: What about the recovery at 2 h, 5 µM ([3]; read-out: Recovery (%) BL-AP) of the same compound?
Answer: 99.2%

Question: What about the Papp A→B at 2 h, 5 µM ([3]; Caco-2, pH 7.4) of the same compound?
Answer: 0.42 ×10⁻⁶ cm/s

Question: Which GI50 [1] does the source give for `N.N.[Cl][Pt][Cl]` [Cisplatin, cisplatin, reference compound] here?
Answer: 10.8 µM

Question: And the GI50 (RPE-1 cells)?
Answer: 6.25 µM

Question: And the GI50 [2]?
Answer: 1.09 µM

Question: For `CC(=O)N1CCN(c2ccc(OCC3COC(Cn4ccnc4)(c4ccc(Cl)cc4Cl)O3)cc2)CC1` (centres unmarked) [Ketoconazole, reference compound], which recovery at 6 h, 5 µM [4] is on record?
Answer: 96.6%
